From patent US8962685B2 (Vireo Systems Inc., priority 2003, dated 2015)

Assays:
[1] = Stability of creatine in aqueous solution over 45 days (Example 4)
Source text: With regard to latent product storage, standard shelf-life according to the FDA is considered to be the time it takes for 10 percent of the starting material to degrade in a given sample. […] Each data point is representative of three different samples. […] The creatine content of each sample was examined over a 45-day period.

[2] = Plasma uptake and relative bioavailability after oral administration in healthy human volunteers (Example 3); settings: for Plasma creatine following administration: oral 5 gram dose, versus pre-dose
Source text: The order of treatment was randomly assigned and there was a 1-week wash out period between creatine treatments.

[3] = cited from earlier work

Structure (SMILES)	original creatine remaining in the aqueous solution ([1]; room temperature (about 21° C.), 45 days, initially 1.5 mg/mL)	Plasma creatine following administration [2]	standard degradation time in water [3]	shelf-life in aqueous solution (time for 10 percent to degrade) ([1]; 1.5 mg/mL)	original creatine remaining in the aqueous solution ([1]; buffer, 1080 h, 1.5 mg/mL)	increase in bioavailability ([2]; in vivo, po)
CN(CC(=O)O)C(=N)N.O [creatine monohydrate]	about 75%	significantly elevated				
CCOC(=O)CN(C)C(=N)N [creatine ethyl ester]			less than one			
CN(CC(=O)O)C(=N)N.Cl [creatine HCl, creatine hydrochloride]		significantly elevated		≥ 45 days	approximately 95%	approximately 50%
